Assay results published in ChEMBL document CHEMBL1151521, “Balanced AT1 and AT2 angiotensin II antagonists. III. potent and orally active 5--ketosulfoxide imidazolyl biphenyl sulfonylureas” (Bioorg Med Chem Lett, 1995).

What was measured:
[1] = tested on: Rattus norvegicus; experiment: Compound was evaluated in vivo, after peroral administration for the inhibition of the pressor response induced by A II (0.75 ug/kg) in normotensive pithed rats; assay type: functional; details: for ED50: Rattus norvegicus, po, read-out: ID50 (the source's name)
[2] = tested on: Rattus norvegicus; experiment: Compound was evaluated in vivo, after intravenous administration for the inhibition of the pressor response induced by A II (0.75 ug/kg) in normotensive pithed rats; assay type: functional; details: read-out: ID50 (the source's name)
[3] = target: T1, Angiotensin II receptor (AT-1) type-1 (Rattus norvegicus, UniProt P29089+P25095); experiment: Concentration required for 50% inhibition of [125I]- AII binding to rat liver membrane preparation (AT1)
T1 sequence (P29089 whole entry): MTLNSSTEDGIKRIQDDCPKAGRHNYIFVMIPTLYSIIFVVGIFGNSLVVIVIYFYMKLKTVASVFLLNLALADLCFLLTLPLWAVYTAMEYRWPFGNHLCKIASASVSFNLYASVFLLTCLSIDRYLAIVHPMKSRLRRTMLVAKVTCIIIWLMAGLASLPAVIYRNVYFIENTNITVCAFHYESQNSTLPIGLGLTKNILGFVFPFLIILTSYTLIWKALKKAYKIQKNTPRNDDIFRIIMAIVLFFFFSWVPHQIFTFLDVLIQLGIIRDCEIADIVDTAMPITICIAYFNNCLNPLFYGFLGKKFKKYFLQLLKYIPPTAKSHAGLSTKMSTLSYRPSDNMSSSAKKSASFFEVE
T1 sequence (P25095 whole entry): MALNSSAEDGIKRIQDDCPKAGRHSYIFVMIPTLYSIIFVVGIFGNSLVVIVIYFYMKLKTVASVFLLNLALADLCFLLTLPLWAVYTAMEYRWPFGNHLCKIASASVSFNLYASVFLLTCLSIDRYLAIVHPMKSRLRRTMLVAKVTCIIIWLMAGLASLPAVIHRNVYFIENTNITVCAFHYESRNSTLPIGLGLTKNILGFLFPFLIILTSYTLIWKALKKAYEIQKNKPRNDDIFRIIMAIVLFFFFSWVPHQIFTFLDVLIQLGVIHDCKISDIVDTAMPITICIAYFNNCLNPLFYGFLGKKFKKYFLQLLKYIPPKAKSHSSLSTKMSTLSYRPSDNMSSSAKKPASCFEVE

[4] = Concentration required for 50% inhibition of [125I]- AII binding to rabbit uterus membrane preparation (AT2); assay type: tissue-based, Oryctolagus cuniculus

| Compound | IC50 [3] | IC50 [4] | ED50 [1] | ED50 [2] | ID50 [1] |
| --- | --- | --- | --- | --- | --- |
| CCCCc1nc(SC)c(C(=O)C[S+](C)[O-])n1Cc1ccc(-c2ccccc2S(=O)(=O)NC(=O)NCc2ccccc2)cc1 (configuration not stated) | 0.3 nM | 15 nM | 0.7 mg/kg | 0.06 mg/kg | – |
| CCCCc1nc(SC)c(C(=O)O)n1Cc1ccc(-c2ccccc2S(=O)(=O)NC(=O)NCc2ccccc2)cc1 | – | 17 nM | – | – | – |
| CCCc1nc(SC)c(C(=O)C[S+]([O-])c2ccccc2)n1Cc1ccc(-c2ccccc2S(=O)(=O)NC(=O)NCC2CCCC2)cc1 (configuration not stated) | 0.35 nM | 7 nM | > 3 mg/kg | – | – |
| CCCc1nc(SC)c(C(=O)C[S+]([O-])c2ccccc2)n1Cc1ccc(-c2ccccc2S(=O)(=O)NC(=O)NCc2cccs2)cc1 (configuration not stated) | 0.02 nM | 3.5 nM | 1.4 mg/kg | – | – |
| CCCc1nc(SC)c(C(=O)C[S+]([O-])c2ccccc2)n1Cc1ccc(-c2ccccc2S(=O)(=O)NC(=O)NCC2CCCCC2)cc1 (configuration not stated) | 0.3 nM | 4 nM | 3.1 mg/kg | – | – |
| CCCCc1nc(SC)c(C(=O)CC(=O)OCC)n1Cc1ccc(-c2ccccc2S(=O)(=O)NC(=O)NCc2ccccc2)cc1 | 0.09 nM | 1 nM | – | – | – |
| CCCCc1nc(SC)c(C(=O)CS(=O)(=O)c2ccc(F)cc2)n1Cc1ccc(-c2ccccc2S(=O)(=O)NC(=O)NCc2ccccc2)cc1 | 0.06 nM | 0.8 nM | > 3 mg/kg | 0.12 mg/kg | – |
| CCCCc1nc(SC)c(C(=O)C(CCC)S(=O)(=O)c2ccccc2)n1Cc1ccc(-c2ccccc2S(=O)(=O)NC(=O)NCc2ccccc2)cc1 (configuration not stated) | 1.8 nM | 180 nM | – | – | – |
| CCCCc1nc(SC)c(C(=O)O)n1Cc1ccc(-c2ccccc2S(=O)(=O)NC(=O)NCCC)cc1 | – | 920 nM | – | – | – |
| CCCCc1nc(SC)c(C(=O)CS(C)(=O)=O)n1Cc1ccc(-c2ccccc2S(=O)(=O)NC(=O)NCc2ccccc2)cc1 | 0.08 nM | 5.8 nM | 1.7 mg/kg | 0.04 mg/kg | – |
| CCCCc1nc(SC)c(C(C)(O)C(=O)O)n1Cc1ccc(-c2ccccc2S(=O)(=O)NC(=O)NCCC)cc1 (configuration not stated) | – | 8.2 nM | – | – | – |
| CCCc1nc(SC)c(C(=O)CS(=O)(=O)c2ccc(OC)cc2)n1Cc1ccc(-c2ccccc2S(=O)(=O)NC(=O)NCc2ccccc2)cc1 | 0.1 nM | 2.1 nM | 2 mg/kg | 0.07 mg/kg | – |

Now from value to compound, other results behind:

| IC50 [3] | IC50 [4] | Compound | ED50 [1] | ED50 [2] | ID50 [1] |
| --- | --- | --- | --- | --- | --- |
| 0.2 nM | 93 nM | CCCc1nc(SC)c(C(=O)CSc2ccccc2)n1Cc1ccc(-c2ccccc2S(=O)(=O)NC(=O)NCc2ccccc2)cc1 | – | – | – |
| 0.07 nM | 1.5 nM | CCc1nc(SC)c(C(=O)C[S+]([O-])c2ccccc2)n1Cc1ccc(-c2ccccc2S(=O)(=O)NC(=O)NCc2ccccc2)cc1 (configuration not stated) | 2 mg/kg | 0.1 mg/kg | – |
| 0.08 nM | 2.8 nM | CCCc1nc(SC)c(C(=O)C[S+]([O-])c2ccccc2)n1Cc1ccc(-c2ccccc2S(=O)(=O)NC(=O)NCc2ccccc2)cc1 (configuration not stated) | 0.8 mg/kg | 0.04 mg/kg | – |
| 0.3 nM | 110 nM | CCCc1nc(SC)c(C(=O)CC#N)n1Cc1ccc(-c2ccccc2S(=O)(=O)NC(=O)NCc2ccccc2)cc1 | – | – | – |
| 0.07 nM | 1.4 nM | CCCc1nc(SC)c(C(=O)C[S+]([O-])c2ccc(C)cc2)n1Cc1ccc(-c2ccccc2S(=O)(=O)NC(=O)NCc2ccccc2)cc1 (single isomer, unassigned; 7g) | 1.5 mg/kg | 0.03 mg/kg | – |
| 0.2 nM | 114 nM | CCCCc1nc(SC)c(C(=O)CC(=O)c2ccccc2)n1Cc1ccc(-c2ccccc2S(=O)(=O)NC(=O)NCc2ccccc2)cc1 | – | – | – |
| 0.09 nM | 2.7 nM | CCCc1nc(SC)c(C(=O)CS(=O)(=O)c2ccccc2)n1Cc1ccc(-c2ccccc2S(=O)(=O)NC(=O)NCc2ccccc2)cc1 | > 3 mg/kg | 0.04 mg/kg | – |
| 0.08 nM | 30 nM | CCCc1nc(SC)c(C(C)=O)n1Cc1ccc(-c2ccccc2S(=O)(=O)NC(=O)NCc2ccccc2)cc1 | – | – | – |
| 0.03 nM | 4.2 nM | CCCc1nc(SC)c(C(=O)C[S+]([O-])c2ccc(C)cc2)n1Cc1ccc(-c2ccccc2S(=O)(=O)NC(=O)NCc2ccccc2)cc1 (single isomer, unassigned; 7h) | – | – | 1.5 mg/kg |
| 0.04 nM | 3 nM | CCCCc1nc(SC)c(C(=O)C[S+]([O-])c2ccccc2)n1Cc1ccc(-c2ccccc2S(=O)(=O)NC(=O)NCc2ccccc2)cc1 (configuration not stated) | 1.6 mg/kg | 0.12 mg/kg | – |
| 0.04 nM | 1.7 nM | CCCCc1nc(SC)c(C(=O)CS(=O)(=O)c2ccccc2)n1Cc1ccc(-c2ccccc2S(=O)(=O)NC(=O)NCc2ccccc2)cc1 | > 3 mg/kg | 0.02 mg/kg | – |
